# Test results as given in patent US20250296914A1, “ANTIVIRAL COMPOUNDS AND COMPOSITIONS THEREFROM” (CONSEJO SUPERIOR DE INVESTIGACIONES CIENTÍFICAS, priority 2022, published 2025).
# Key:
# [1] = system: SARS-CoV-2 stock strain NL/2020; test: Protective effect against virus-induced cytopathic effect (crystal violet staining of Vero-E6 monolayer); format: cell-based; details: Vero-E6, SARS-CoV-2 MOI 0.001, 72 h; for minimal effective concentration / PC MIN (lowest protective concentration): 50 to 0.78 μM tested; for minimal effective concentration: read-out: PC MIN (lowest protective concentration); for EC50: lowest fully protecting concentration averaged with next lower dilution, read-out: ESTIMATED EC50
# [2] = system: SARS-CoV-2 stock strain NL/2020; test: Intracellular viral antigen (N protein) accumulation by immunofluorescence, Vero-E6; format: cell-based; details: Severe acute respiratory syndrome coronavirus 2, Vero C1008; Vero-E6, MOI 0.005, viral antigen staining, 24 h
# [3] = system: SARS-CoV-2 stock strain NL/2020; test: Intracellular viral antigen (N protein) accumulation by immunofluorescence, A549-ACE2; format: cell-based; details: Severe acute respiratory syndrome coronavirus 2; A549-ACE2, MOI 0.005, viral antigen staining, 48 h
# [4] = system: SARS-CoV-2 stock strain NL/2020; test: Intracellular viral antigen (N protein) accumulation by immunofluorescence, Calu3; format: cell-based; details: Severe acute respiratory syndrome coronavirus 2; Calu-3, MOI 0.005, viral antigen staining, 48 h
# in vitro = details: African green monkey
# [5] = Severe acute respiratory syndrome coronavirus 2, Vero C1008, 72 h
smiles,measurement,setting,value
"CC(=O)c1ccccc1NC(C#N)[C@H](Cc1c[nH]c2ccccc12)NC(=O)OC(C)(C)C (stereo partly drawn) [(Ial), (3S)-3-(tert-butoxycarbonylamino)-2-((2-acetylphenyl)amino)-4-(1H-indol-3-yl)butanenitrile]",minimal effective concentration,[1]; [5],12.5 µM
same,EC50,[1]; [5],9.37 µM
"COC(=O)c1ccc(NC(C#N)[C@H](Cc2c[nH]c3ccccc23)NC(=O)OC(C)(C)C)cc1 (stereo partly drawn) [(Iam), methyl 4-(((2S)-2-((tert-butoxycarbonyl)amino)-1-cyano-3-(1H-indol-3-yl)propyl)amino)-benzoate]",minimal effective concentration,[1]; [5],25 µM
same,EC50,[1]; [5],18.8 µM
"COC(=O)c1cc(Br)ccc1NC(C#N)[C@H](Cc1c[nH]c2ccccc12)NC(=O)OC(C)(C)C (stereo partly drawn) [(Ib), methyl 5-bromo-2-(((2S)-2-((tert-butoxycarbonyl)amino)-1-cyano-3-(1H-indol-3-yl)propyl)amino)benzoate]",minimal effective concentration,[1]; [5],0.78 µM
same,EC50,[1]; [5],0.58 µM
same,EC50,[2],0.5 µM
same,EC90,[2],2.2 µM
same,EC50,[3],1.8 µM
same,EC90,[3],2.7 µM
same,EC50,[4],1.2 µM
same,EC90,[4],2.5 µM
same,CC50 at 48 h,in vitro,> 12.5 µM
"CC(C)(C)OC(=O)N[C@@H](Cc1c[nH]c2ccccc12)C(C#N)Nc1ccc(Cl)cc1C(=O)c1ccccc1 (stereo partly drawn) [(Id), (3S)-3-(tert-Butoxycarbonylamino)-4-(1H-indol-3-yl)-2-((2-benzoyl-4-chlorophenyl)amino)butanenitrile]",minimal effective concentration,[1]; [5],0.78 µM
same,EC50,[1]; [5],0.58 µM
same,EC50,[2],0.2 µM
same,EC90,[2],0.5 µM
same,EC50,[3],0.6 µM
same,EC90,[3],1.4 µM
same,EC50,[4],0.3 µM
same,EC90,[4],1.1 µM
same,CC50 at 48 h,in vitro,> 50 µM
"CCOC(=O)c1ccccc1NC(C#N)[C@H](Cc1c[nH]c2ccccc12)NC(=O)OC(C)(C)C (stereo partly drawn) [(Ih), ethyl 2-(((2S)-2-((tert-butoxycarbonyl)amino)-1-cyano-3-(1H-indol-3-yl)propyl)amino)-benzoate]",minimal effective concentration,[1]; [5],1.56 µM
same,EC50,[1]; [5],1.17 µM
same,EC50,[2],0.1 µM
same,EC90,[2],2.5 µM
same,EC50,[3],4 µM
same,EC90,[3],7 µM
same,EC50,[4],3.7 µM
same,EC90,[4],4 µM
same,CC50 at 48 h,in vitro,> 12.5 µM
"COC(=O)c1ccc(Br)cc1NC(C#N)[C@H](Cc1c[nH]c2ccccc12)NC(=O)OC(C)(C)C (stereo partly drawn) [(Ii), methyl 4-bromo-2-(((2S)-2-((tert-butoxycarbonyl)amino)-1-cyano-3-(1H-indol-3-yl)propyl)-amino)benzoate]",minimal effective concentration,[1]; [5],1.56 µM
same,EC50,[1]; [5],1.17 µM
same,EC50,[2],0.2 µM
same,EC90,[2],1.4 µM
same,EC50,[3],2 µM
same,EC90,[3],6 µM
same,EC50,[4],< 0.9 µM
same,EC90,[4],2.7 µM
same,CC50 at 48 h,in vitro,> 12.5 µM
"COC(=O)c1cc(-c2ccc(C(C)(C)C)cc2)ccc1NC(C#N)[C@H](Cc1c[nH]c2ccccc12)NC(=O)OC(C)(C)C (stereo partly drawn) [(Ij), methyl 4-(((2S)-2-((tert-butoxycarbonyl)amino)-1-cyano-3-(1H-indol-3-yl)propyl)amino)-4′-(tert-butyl)-[1,1′-biphenyl]-3-carboxylate]",minimal effective concentration,[1]; [5],1.56 µM
same,EC50,[1]; [5],1.17 µM
"COC(=O)c1c(Br)cccc1NC(C#N)[C@H](Cc1c[nH]c2ccccc12)NC(=O)OC(C)(C)C (stereo partly drawn) [(Ik), methyl 2-bromo-6-(((2S)-2-((tert-butoxycarbonyl)amino)-1-cyano-3-(1H-indol-3-yl)propyl)-amino)benzoate]",minimal effective concentration,[1]; [5],1.56 µM
same,EC50,[1]; [5],1.17 µM
"CCc1ccc(-c2ccc(NC(C#N)[C@H](Cc3c[nH]c4ccccc34)NC(=O)OC(C)(C)C)c(C(=O)OC)c2)cc1 (stereo partly drawn) [(Il), methyl 4-(((2S)-2-((tert-butoxycarbonyl)amino)-1-cyano-3-(1H-indol-3-yl)propyl)amino)-4′-ethyl-[1,1′-biphenyl]-3-carboxylate]",minimal effective concentration,[1]; [5],1.56 µM
same,EC50,[1]; [5],1.17 µM
"COC(=O)c1cc(-c2ccc(C3CC3)cc2)ccc1NC(C#N)[C@H](Cc1c[nH]c2ccccc12)NC(=O)OC(C)(C)C (stereo partly drawn) [(Im1), methyl 4-(((2S)-2-((tert-butoxycarbonyl)amino)-1-cyano-3-(1H-indol-3-yl)propyl)amino)-4′-cyclopropyl-[1,1′-biphenyl]-3-carboxylate]",PC MIN (lowest protective concentration),[1],1.56 µM
same,EC50,[1],1.17 µM
"COC(=O)c1cc(-c2ccc(C3CC3)cc2)ccc1NC(C#N)[C@H](Cc1c[nH]c2ccccc12)NC(=O)OC(C)(C)C (stereo partly drawn) [(Im2), methyl 4-(((2S)-2-((tert-butoxycarbonyl)amino)-1-cyano-3-(1H-indol-3-yl)propyl)amino)-4′-cyclopropyl-[1,1′-biphenyl]-3-carboxylate]",PC MIN (lowest protective concentration),[1],1.56 µM
same,EC50,[1],1.17 µM
"COC(=O)c1cc(-c2ccc(C3CC3)cc2)ccc1NC(C#N)[C@H](Cc1c[nH]c2ccccc12)NC(=O)OC(C)(C)C (stereo partly drawn) [(Im3), methyl 4-(((2S)-2-((tert-butoxycarbonyl)amino)-1-cyano-3-(1H-indol-3-yl)propyl)amino)-4′-(cyclopropyl)-[1,1′-biphenyl]-3-carboxylate]",PC MIN (lowest protective concentration),[1],3.12 µM
same,EC50,[1],2.34 µM
"COC(=O)c1cc(-c2ccc(C3CC3)cc2)ccc1NC(C#N)[C@H](Cc1c[nH]c2ccccc12)NC(=O)OC(C)(C)C (stereo partly drawn) [(Im4), methyl 4-(((2S)-2-((tert-butoxycarbonyl)amino)-1-cyano-3-(1H-indol-3-yl)propyl)amino)-4′-cyclopropyl-[1,1′-biphenyl]-3-carboxylate]",PC MIN (lowest protective concentration),[1],6.25 µM
same,EC50,[1],4.69 µM
"COC(=O)c1cc(-c2ccc(N3CCN(C)CC3)cc2)ccc1NC(C#N)[C@H](Cc1c[nH]c2ccccc12)NC(=O)OC(C)(C)C (stereo partly drawn) [(In), methyl 4-(((2S)-2-((tert-butoxycarbonyl)amino)-1-cyano-3-(1H-indol-3-yl)propyl)amino)-4′-(4-methylpiperazin-1-yl)-[1,1′-biphenyl]-3-carboxylate]",minimal effective concentration,[1]; [5],1.56 µM
same,EC50,[1]; [5],1.17 µM
"COC(=O)c1cc(-c2cc(OC(C)C)ccc2F)ccc1NC(C#N)[C@H](Cc1c[nH]c2ccccc12)NC(=O)OC(C)(C)C (stereo partly drawn) [(Ip), methyl 4-(((2S)-2-((tert-butoxycarbonyl)amino)-1-cyano-3-(1H-indol-3-yl)propyl)amino)-2′-fluoro-5′-isopropoxy-[1,1′-biphenyl]-3-carboxylate]",minimal effective concentration,[1]; [5],1.56 µM
same,EC50,[1]; [5],1.17 µM
same,EC50,[2],1.5 µM
same,EC90,[2],7 µM
same,EC50,[3],5 µM
same,EC90,[3],9 µM
same,EC50,[4],1.8 µM
same,EC90,[4],8 µM
same,CC50 at 48 h,in vitro,> 50 µM
"COC(=O)c1cc(-c2ccc(C)nc2)ccc1NC(C#N)[C@H](Cc1c[nH]c2ccccc12)NC(=O)OC(C)(C)C (stereo partly drawn) [(Ir), methyl 2-(((2S)-2-((tert-butoxycarbonyl)amino)-1-cyano-3-(1H-indol-3-yl)propyl)amino)-5-(6-methylpyridin-3-yl)benzoate]",minimal effective concentration,[1]; [5],1.56 µM
same,EC50,[1]; [5],1.17 µM
"COC(=O)c1cc(-c2ccc(OC)nc2)ccc1NC(C#N)[C@H](Cc1c[nH]c2ccccc12)NC(=O)OC(C)(C)C (stereo partly drawn) [(It), methyl 2-(((2S)-2-((tert-butoxycarbonyl)amino)-1-cyano-3-(1H-indol-3-yl)propyl)amino)-5-(6-methoxypyridin-3-yl)benzoate]",minimal effective concentration,[1]; [5],1.56 µM
same,EC50,[1]; [5],1.17 µM
"COC(=O)c1ccccc1NC(C#N)[C@H](Cc1c[nH]c2ccccc12)NC(=O)OC(C)(C)C (stereo partly drawn) [(Iu), methyl 2-(((2S)-2-((tert-butoxycarbonyl)amino)-1-cyano-3-(1H-indol-3-yl)propyl)amino)benzoate]",minimal effective concentration,[1]; [5],3.12 µM
same,EC50,[1]; [5],2.34 µM
"CC(C)(C)OC(=O)N[C@@H](Cc1c[nH]c2ccccc12)C(C#N)Nc1ccccc1C(=O)OC(C)(C)C (stereo partly drawn) [(Iv), tert-Butyl 2-(((2S)-2-((tert-butoxycarbonyl)amino)-1-cyano-3-(1H-indol-3-yl)propyl)amino)-benzoate]",minimal effective concentration,[1]; [5],3.12 µM
same,EC50,[1]; [5],2.34 µM
"CCCCc1ccc(-c2ccc(NC(C#N)[C@H](Cc3c[nH]c4ccccc34)NC(=O)OC(C)(C)C)c(C(=O)OC)c2)cc1 (stereo partly drawn) [(Iw), methyl 4-(((2S)-2-((tert-butoxycarbonyl)amino)-1-cyano-3-(1H-indol-3-yl)propyl)amino)-4′-butyl-[1,1′-biphenyl]-3-carboxylate]",EC50,[1]; [5],2.34 µM
same,PC MIN (lowest protective concentration),[1],3.12 µM
"CCN(CC)c1ccc(-c2ccc(NC(C#N)[C@H](Cc3c[nH]c4ccccc34)NC(=O)OC(C)(C)C)c(C(=O)OC)c2)cc1 (stereo partly drawn) [(Ix), methyl 4-(((2S)-2-((tert-butoxycarbonyl)amino)-1-cyano-3-(1H-indol-3-yl)propyl)amino)-4′-(diethylamino)-[1,1′-biphenyl]-3-carboxylate]",minimal effective concentration,[1]; [5],3.12 µM
same,EC50,[1]; [5],2.34 µM
"CCCOc1ccc(-c2ccc(NC(C#N)[C@H](Cc3c[nH]c4ccccc34)NC(=O)OC(C)(C)C)c(C(=O)OC)c2)cc1 (stereo partly drawn) [(Iy), methyl 4-(((2S)-2-((tert-butoxycarbonyl)amino)-1-cyano-3-(1H-indol-3-yl)propyl)amino)-4′-propoxy-[1,1′-biphenyl]-3-carboxylate]",minimal effective concentration,[1]; [5],3.12 µM
same,EC50,[1]; [5],2.34 µM
"COC(=O)c1cc(-c2cccc(C(C)(C)C)c2)ccc1NC(C#N)[C@H](Cc1c[nH]c2ccccc12)NC(=O)OC(C)(C)C (stereo partly drawn) [(Iz), methyl 4-(((2S)-2-((tert-butoxycarbonyl)amino)-1-cyano-3-(1H-indol-3-yl)propyl)amino)-3′-(tert-butyl)-[1,1′-biphenyl]-3-carboxylate]",minimal effective concentration,[1]; [5],3.12 µM
same,EC50,[1]; [5],2.34 µM
